According to patent US20080050452A1, “METAL-CONTAINING FORMULATIONS AND METHODS OF USE” (priority 2006, published 2008):
≈ marks a conversion by molar mass, not a printed value.

Tests used:
[1] = Compatibility of nanocrystalline silver with excipients; format: physicochemical; conditions: 10% aqueous solution of excipient mixed with nanocrystalline silver in glass vial, 40° C. overnight
Enterobacter cloacae = test: MIC assay; format: cell-based; conditions: Ent. cloacae
Escherichia coli = test: MIC assay; format: cell-based
[2] = Body weight in rat DNBS-induced colitis; format: in vivo, Sprague-Dawley rats; conditions: rats with DNBS-induced colitis, intracolonic or oral treatment
DNBS-induced colitis [3] = test: Total IBD score in rat DNBS-induced colitis; format: in vivo, Sprague-Dawley rats
Excerpt: Animals: Male Sprague-Dawley rats, weighing approximately 250-300 gm were purchased from Charles River Laboratories (Raleigh, N.C.). The animals were housed under standard conditions with free access to food and water. They were acclimatized for 2-3 days before commencing the experiments. The study protocol was approved by the Institutional Animal Care and Use Committees (IACUC).
Induction of ulcerative colitis: Colitis was produced according to published methods. Animals were anesthetized by intraperitoneal injection of 75 mg/kg of ketamine plus 5 mg/kg of xylazine. A single intracolonic injection of 120 mg/ml of dinitrobenzenesulfonic acid (DNBS) (Sigma Chemicals, St. Louis, Mo.) in 250 micro liter of 50% ethanol was administered through a Tom Cat catheter (Kendall Sovereign, Mansfield, Mass.) with a closed-end tip, connected to a 1 ml syringe and placed 7 cm proximal to the anus. Lubricant was applied to the tip of the catheter before injection, to protect from mucosal injury. After instillation of DNBS, 0.5 ml of air was insufflated and the catheter was removed.
Sulfasalazine (Sigma Chemicals, St Louis, Mo.), at a concentration of 120 mg/ml for intracolonic treatment and 30 mg/ml for oral treatment was used as the reference drug in all the experiments. Sulfasalazine was first dissolved in 0.1M NaOH at a concentration about 30-fold higher than the required final concentration, and then suspended in 1.5% PVA for oral dosing and 5.7% PVA for intracolonic dosing.
One group was not treated and served as no treatment group. Treatment began one day after administration of DNBS.
Macroscopic Observations: Body weight was recorded daily and the animals were examined for their physical appearance. After five days of treatment, animals were sacrificed. The colon was excised between the ileocecal junction and rectum, and opened longitudinally. After scoring of the consistency of the stool the colon was rinsed in normal saline, examined and thickness of the colonic wall and number and size of ulcers were scored. Stool consistency was graded on a scale of 0-3: 0=normal stool, well formed pellets rigid as normal; 1=loose stool, formed pellet with moisture, soft stool keeping in stool shape; 2=loose stool, stools that have abnormal form with much moisture, softer shapeless stool; 3=watery or bloody diarrhea.
Thickness of colonic wall was graded on a scale of 0-4: 0=normal, no thickness; 1=mild thickness in lower portion of the colon; 2=moderate thickness in localized area; 3=moderate thickness extending to the central portion of the colon; 4=severe thickness in the whole colon. Colonic ulceration was graded on a scale of 0-10: 0=no ulcers; 1=one small ulcer less than 2-3 mm; 2=one large ulcer more than 2-3 mm; 3=two large ulcerations more than 2-3 mm in diameter; 4=two or more sites of ulcerations extending 1 cm along the length; 5-10=when an area of ulceration extended more than 1 cm along the length of the colon, the score increases by 1 for each additional cm of involvement. The total IBD score, obtained by the sum of the scores of colonic ulcer, colon thickness and stool consistency for each animal, was calculated for each treatment group.
Statistical Analysis: The results are expressed as the mean ±SE. The statistical significance in the mean total IBD score, histopathological inflammation score, and the immunohistochemical staining of cytokines or MMP-9 was determined using Tukey-Kramer's multiple comparison tests following one-way analysis of variance (ANOVA). The data were calculated with the aid of Instat Graph Pad Software. Differences with a P value less than 0.05 were considered significant.
Methods: Colitis was induced in rats using DNBS as described in Example 25. Animals were treated intracolonically (250 μl of the test reagents) once a day for five days. […] Methods: Colitis was induced in rats using DNBS as described in Example 25. Animals were treated intracolonically (250 μl of the test reagents) once a day for five days.

DNBS-induced colitis [4] = test: Histopathological inflammation score of colon, rat DNBS-induced colitis; format: in vivo, Sprague-Dawley rats; conditions: oral, 100 mg/kg, five days, vs placebo and untreated
Protocol: Histopathology: A piece of colonic tissue at 2-4 cm proximal to the anus was excised and fixed in 10% formalin and the sections were stained with hematoxylin and eosin. The remaining length of the colonic tissues was stored at −80° C. for subsequent biochemical assays. The histology slides were examined by a veterinary pathologist who was blinded to the treatment groups. The extent of microscopic mucosal damage of the colon was scored on scale of 0-5 as described with slight modification: 0=normal histological appearance; 1=histological damage limited to surface epithelium, mild infiltration of the submucosa; 2=focal ulceration and cell disruption limited to mucosa, abnormal appearance of colonic wall, mild infiltration of inflammatory cells; 3=focal, transmural inflammation and ulceration, with mild to moderate infiltration of inflammatory cells; 4=Extensive transmural ulceration and inflammation bordered by areas of normal mucosa, moderate infiltration of inflammatory cells; 5=extensive transmural ulceration and inflammation involving entire section from epithelium to serosa, severe infiltration of inflammatory cells.
Statistical Analysis: The results are expressed as the mean ±SE. […] The data were calculated with the aid of Instat Graph Pad Software. […]

IL-1β = test: Immunohistochemical staining of colon, rat DNBS-induced colitis; format: in vivo; conditions: oral treatment five days
Protocol: (§1) Immunohistochemistry: A Universal Streptavidin/Biotin detection system (Thermo Shandon, Pittsburgh, Pa.) was used for immunohistochemical staining of formalin fixed, paraffin embedded biopsies of the colon. After dewaxing, and hydration, sections were treated with protein blocking agent to reduce non-specific binding of antibodies. The tissues were then incubated with rabbit anti-rat TNF-α, or mouse anti-rat IL-12 p70 antibodies (Biosource International, Inc, Camarillo, Calif.); rabbit anti-rat IL-1β (Serotec, Raleigh, N.C.) or rabbit anti-rat MMP-9 antibody (Chemicon International, Telecuma, Calif.) in 1% bovine serum albumin in phosphate buffered saline. Incubations with secondary antibodies, streptavidin/biotin, and chromogenic detection of peroxidase were performed according to the manufacturer's protocol. Sections were counterstained, dehydrated, mounted and examined. The intensity of the immuno-peroxidase staining was graded as described previously. Expression of cytokines was graded as: 0, no staining in the section; 1, less than 25% of the section; 2, 25-50% of the section; 3, 50-75% of the section; 4, >75% of the section with significant staining.

MMP-9 = test: as above; format: in vivo; conditions: colonic tissues, oral treatment, vs placebo and no treatment
Protocol: as §1

TNF-α = test: as above; format: in vivo; conditions: oral treatment five days
Protocol: as §1

Staphylococcus aureus = test: MIC assay; format: cell-based; conditions: solutions in 0.1 M lactate buffer pH 4.0
[5] = system: Staphylococcus epidermidis; test: MIC assay; format: cell-based; conditions: S. epiderm (ATCC); solutions in 0.1 M lactate buffer pH 4.0
Streptococcus pyogenes = test: MIC assay; format: cell-based; conditions: solutions in 0.1 M lactate buffer pH 4.0
Streptococcus pneumoniae = test: MIC assay; format: cell-based; conditions: solutions in 0.1 M lactate buffer pH 4.0
Pseudomonas aeruginosa = test: MIC assay; format: cell-based; conditions: solutions in 0.1 M lactate buffer pH 4.0

OCc1ccccc1 [Benzyl alcohol]
Reaction with nanocrystalline silver [1]: Grey/slightly red

CCCCCCCCCCCCCCCCCCO [Cetearyl alcohol]
Reaction with nanocrystalline silver [1]: Light brown/green/black

CCCCCCCCCCCCCCCCO [Cetyl alcohol]
Reaction with nanocrystalline silver [1]: Grey color - no discoloration

CCCCCCCCCCCCCCCCCC(=O)OCC(O)CO (stereo not drawn) [Glycerol monostearate]
Reaction with nanocrystalline silver [1]: Brown discoloration

CCCCCCCCCCCCCC(=O)OC(C)C [Isopropyl myristate]
Reaction with nanocrystalline silver [1]: Grey color - no discoloration

COC(=O)c1ccc(O)cc1 [Methylparaben]
Reaction with nanocrystalline silver [1]: Brown discoloration

CC(O)CO (stereo not drawn) [Propylene glycol]
Reaction with nanocrystalline silver [1]: Discoloration

CCCOC(=O)c1ccc(O)cc1 [Propylparaben]
Reaction with nanocrystalline silver [1]: Green discoloration

OO [Sample H2O2, hydrogen peroxide]
Reaction with nanocrystalline silver [1]: Brown discoloration after drying
MIC (Enterobacter cloacae; absence of catalase and superoxide dismutase (−)): 63 µg/mL (≈ 1850 µM)
MIC (Enterobacter cloacae; presence of catalase and superoxide dismutase (+)): >500 µg/mL
MIC (Escherichia coli; E. coli, absence of catalase and superoxide dismutase (−)): 31 µg/mL (≈ 911 µM)
MIC (Escherichia coli; E. coli, presence of catalase and superoxide dismutase (+)): >500 µg/mL

O=C([O-])c1ccccc1.[Na+] [Sodium benzoate]
Reaction with nanocrystalline silver [1]: White precipitate

CCCCCCCCCCCCCCCCCC(=O)O [Stearic acid]
Reaction with nanocrystalline silver [1]: Grey color - no discoloration

CCOCCOCCO [Transcutol, diethylene glycol monoethyl ether]
Reaction with nanocrystalline silver [1]: Grey color - no discoloration

O=C(O)c1cc(/N=N/c2ccc(S(=O)(=O)Nc3ccccn3)cc2)ccc1O [sulfasalazine, salicylazosulfapyridine]
body weight change [2]: started gaining body weight after one day of treatment
total IBD score vs placebo (DNBS-induced colitis [3]; Example 27, intracolonic, 100 mg/kg): significantly reduced
total IBD score vs placebo (DNBS-induced colitis [3]; Example 28, intracolonic, 100 mg/kg): significantly reduced
total IBD score (DNBS-induced colitis [3]; intracolonic, 100 mg/kg, five days): Significant reduction
histopathological inflammation score (DNBS-induced colitis [4]): significantly reduced
expression of IL-1β (immunohistochemical staining) (IL-1β): significantly reduced
expression of MMP-9 (immunohistochemical staining) (MMP-9): significantly reduced
expression of TNF-α (immunohistochemical staining) (TNF-α): significantly reduced

PEG 400
Reaction with nanocrystalline silver [1]: Grey color - no discoloration

Polyoxyl 40 stearate
Reaction with nanocrystalline silver [1]: Grey color - no discoloration

Sodium parabens
Reaction with nanocrystalline silver [1]: Precipitation

silver oxide [Ag2O]
MIC (Staphylococcus aureus; S. aureus (ATCC)): 3 µg/mL
MIC (Staphylococcus aureus; S. aureus (clin.)): 6 µg/mL
MIC [5]: 2 µg/mL
MIC (Streptococcus pyogenes; S. pyog (clin. 303)): 2 µg/mL
MIC (Streptococcus pyogenes; S. pyog (clin. 304)): 3 µg/mL
MIC (Streptococcus pneumoniae; S. pneumo (clin 314)): 3 µg/mL
MIC (Streptococcus pneumoniae; S. pneumo (clin 315)): 2 µg/mL
MIC (Pseudomonas aeruginosa; P. aerug (ATCC)): 0.8 µg/mL
MIC (Pseudomonas aeruginosa; P. aerug. (clin.)): 2 µg/mL
MIC (Escherichia coli; E. coli (ATCC), solutions in 0.1 M lactate buffer pH 4.0): 0.8 µg/mL
total IBD score vs placebo (DNBS-induced colitis [3]; Example 27, intracolonic 250 μl once a day for five days, 0.25% homogenized): unable to show significant reduction
total IBD score vs placebo (DNBS-induced colitis [3]; Example 27, intracolonic 250 μl once a day for five days, 0.5% homogenized): unable to show significant reduction
total IBD score vs placebo (DNBS-induced colitis [3]; Example 27, intracolonic 250 μl once a day for five days, 0.5% sonicated nanodispersion): significantly reduced
total IBD score vs placebo (DNBS-induced colitis [3]; Example 28, intracolonic 250 μl once a day for five days, 0.5% sonicated nanodispersion): significantly reduced
total IBD score vs placebo (DNBS-induced colitis [3]; Example 28, intracolonic 250 μl once a day for five days, 1.5% sonicated nanodispersion): significantly reduced
